Assay results published in paper PMC12430429, “Synthesis, Structure, DNA/BSA Binding, DNA Cleaving, Cytotoxic and SOD Mimetic Activities of Copper(II) Complexes Derived from Methoxybenzylamine Schiff Base Ligands” (Molecules, 2025).

How the values were obtained:
[1] = test system: supercoiled DNA plasmid pBR322; assay: DNA cleavage assay (agarose gel electrophoresis); format: biochemical; conditions: for Form I (%) / Form II (%) / Form III (%): 3 h, 37 °C, 250 ng pDNA
Description: The gel electrophoresis separation of the supercoiled DNA plasmid pBR322 induced by prepared copper(II) complexes is shown in Figure 7. […] The cleavage activity of 4a and 4c increased remarkably with increasing concentration.
The DNA cleaving activities were also quantified using the “geneQUANT software” (Cleaver Scientific, UK). Data are expressed as percentage (%) expression of the amount of pDNA that has passed through the effect of the nuclease activity of the copper complex from the uncleaved supercoiled Form I to the cleaved Form II (open-circular pDNA) or Form III (linear pDNA) (Table 5). […] Therefore, each percentage can also be converted to the mass of pDNA turned to Form II or III. For example, for complex 4a at a 1 mM concentration, 41.2% of pDNA was cleaved to Form II, which is 103 ng of pDNA, or at a 3 mM concentration, 46.2% corresponds to 115.5 ng of pDNA. Quantification allows us to compare the specific complexes more precisely. […] Some aggregation might be present at higher concentrations, keeping the amount of reactive monomer at a lower level.
The ability of copper(II) complexes to cleave DNA was examined by following the conversion of supercoiled plasmid DNA (Form I) to the open-circular DNA (Form II) and/or linear DNA (forms using agarose gel electrophoresis to separate the cleavage products.
In general, 250 ng of the DNA plasmid pBBR 322 (in 25 mM TRIS-HCl buffer solution, pH 7.5) was treated with different concentrations (1 mM, 3 mM and 5 mM) of the copper(II) complex (dissolved in DMSO) for 3 h at 37 °C. After that, each reaction was quenched by adding 4 μL of a Smart Glow Loading Dye® (loading buffer solution with 0.01% Safe Green dye, 50% glycerol and 250 mM EDTA, pH 8.0) and the sample subjected to electrophoresis (MyGel Mini electrophoresis system®, Accuris, Edison, NJ, USA) on a 0.9% agarose gel containing TAE buffer (40 mM TRIS, 20 mM acetic acid and 1 mM EDTA) at a voltage of 55 V/40 mA for about 1.5 h. As a “running buffer”, TAE buffer (40 mM TRIS, 20 mM acetic acid and 1 mM EDTA) was used. The resulting gels were visualized with UV light and scanned by a mobile device, an Apple iPhone 11 cam 26 mm f1.8. DNA cleaving activities were quantified using the “geneQUANT software” (version 4.3.9, Cleaver Scientific, Rugby, UK).
In the following tables, the percentage (%) expression of the amount of pDNA that has passed through the effect of the nuclease activity of the copper complex from the uncleaved supercoiled form I to the cleaved form II (open circular pDNA) or form III (linear pDNA). Quantitative evaluation was performed using the […] (Cleaver Scientific, UK). V (tested sample) = 20 ul; c (pDNA) = 250 […]
Figure S2-1: The original gel scan: upper left lines 1 – 4 complex 4a (0 mM, 1 mM, 3mM, 5mM), upper lines 6 – 9 complex 4b (0 mM, 1 mM, 3mM, 5mM), lower lines 1 – 4 complex 4c (0 mM, 1 mM, 3mM, […]
(1 picture or pasted object on this page, not shown here)

S. cerevisiae cells = assay: Resazurin cytotoxicity assay (mitochondrial activity); format: cell-based; conditions: for Cell Death (%) / Reduction Percentage (%): 3 h incubation
Description: The resazurin-based model that monitors mitochondrial activity is widely used as an indicator of cell viability, proliferation and cytotoxicity. This method is based on the reduction of resazurin to resorufin by mitochondrial enzymes, as carriers of diaphorase activities, like NADPH-dehydrogenase, which are responsible for the transference of electrons from NADPH^+, H^+ to resazurin. The reduction of resazurin correlates with the number of live bacterial or mammalian cells or fungi. Furthermore, S. cerevisiae is an established model system for eukaryotic organisms. They have conserved cellular processes with high homology to those of humans. They proliferate rapidly and are even used as a model to study the effects of anticancer agents. The use of S. cerevisiae in resazurin redox testing is a good alternative to conventional cell viability testing techniques.
The assay is based on the ability of living cells to reduce blue resazurin (7-hydroxy-3H-phenoxazin-3-one 10-oxide) to pink resorufin (7-hydroxy-3H-phenoxazin-3-one) which is measurable by the UV–Vis spectrophotometric or fluorometric method (AlamarBlue^TM). Living cells have active N-methylphenazinium methosulfate that catalyzes the redox reaction in mitochondria of NADH and blue resazurin to produce pink resorufin (Scheme 2). This test is used as an oxidation–reduction indicator in cell viability assays for yeasts and mammalian cells. Reduction of the dye by viable cells decreases the amount of the oxidized form (blue) and, at the same time, increases the amount of its fluorescent intermediate (pink), indicating the degree of cytotoxicity caused by the test material.
S. cerevisiae cells (CCY 21-4-64; Libáň, Czech Republic) were cultured at 28 °C/24h on Saburaud’s dextrose agar with chloramphenicol (Merck, Boston, MA, USA). Subsequently, after 24 h, S. cerevisiae cells were inoculated into sterile liquid YPD medium (Sigma–Aldrich, St. Louis, MO, USA) and cultivation continued at 28 °C/24 h. In the exponential growth phase, cells were centrifuged (8.000 g/3 min), washed twice with sterile physiological solution (0.9% NaCl) and pipetted at a concentration of 1 × 10^9 cells/mL in sterile microtubes (modified procedure from Bitacura, 2018). Sterile physiological solution and copper complexes at concentrations of 1 × 10^−3 M, 3 × 10^−3 M and 5 × 10^−3 M were added to the centrifuged biomass to a total volume of 1 mL and individual samples were cultured in an incubator at 28 °C/3 h. After 3 h, 0.1 mL of ResazurinOX (in vitro toxicology assay kit based on resazurin, Sigma, USA) was added to each sample and the samples were allowed to culture for 2 h. After incubation, the biomass in the samples was separated from the supernatant by centrifugation (8000 g/5 min). The separated solution was diluted in a ratio of 1:1 with physiological solution and subjected to the measurement of UV spectra by the spectrophotometric method according to the recommended protocol of the kit manufacturer (Sigma, USA) on a GENESYS 10S UV–Vis spectrophotometer (Thermo Scientific, USA) in the range of 500–800 nm, using a 1 cm long cuvette.
Cells’ innate metabolic was measured by using an established formula for the reduction percentage. The reduction percentage was calculated using the following formula:(7) Red(%)=ƐOX_600 nm×A570 nm_sample−ƐOX_570 nm×A600 nm_sample/ƐRED_570 nm×A600 nm_C−−ƐRED_600 nm×A570 nm_C−×100

SMILES | mass of pDNA in Form I ([1]; complex 1 mM, of 250 ng pDNA) | mass of pDNA in Form II ([1]; complex 1 mM, of 250 ng pDNA) | mass of pDNA in Form I ([1]; complex 3 mM, of 250 ng pDNA) | mass of pDNA in Form II ([1]; complex 3 mM, of 250 ng pDNA) | Form I (%) ([1]; complex 1 × 10^−3 M) | Form II (%) ([1]; complex 1 × 10^−3 M) | Form III (%) ([1]; complex 1 × 10^−3 M) | Form I (%) ([1]; complex 3 × 10^−3 M) | Form II (%) ([1]; complex 3 × 10^−3 M) | Form III (%) ([1]; complex 3 × 10^−3 M) | Form I (%) ([1]; complex 5 × 10^−3 M) | Form II (%) ([1]; complex 5 × 10^−3 M) | Cell Death (%) (S. cerevisiae cells; complex 1 mM) | Reduction Percentage (%) (S. cerevisiae cells; complex 1 mM) | Cell Death (%) (S. cerevisiae cells; complex 3 mM) | Reduction Percentage (%) (S. cerevisiae cells; complex 3 mM) | Cell Death (%) (S. cerevisiae cells; complex 5 mM) | Reduction Percentage (%) (S. cerevisiae cells; complex 5 mM) | mass of pDNA in Form I ([1]; complex 5 mM, of 250 ng pDNA) | mass of pDNA in Form II ([1]; complex 5 mM, of 250 ng pDNA) | other results
COc1ccccc1CN=Cc1ccccc1[O-].COc1ccccc1CN=Cc1ccccc1[O-].[Cl-].[Cl-].[Cu+2].[Cu+2] [Complex 4a, [Cu2 (Sal-2-MeOBn)2 Cl2]] | 147 ng | 103 ng | 134,5 ng | 115,5 ng | 58,8% | 41,2% | 0 | 53,8% | 46,2% | 0 | 0% | 0% | 67.1 | 32.9 | 91.6 | 8.4 | 96.5 | 3.5 | – | – | mass of pDNA in Form III ([1]; complex 5 mM, of 250 ng pDNA): 250 ng
COc1cccc(CN=Cc2ccccc2[O][Cu][O]c2ccccc2C=NCc2cccc(OC)c2)c1 [Complex 4b, [Cu (Sal-3-MeOBn)2]] | 146,25 ng | 103,75 ng | 140,5 ng | 109,5 ng | 58,5% | 41,5% | 0 | 56,2% | 43,8% | 0 | 48,2% | 51,8% | 76.0 | 24.0 | 92.6 | 7.4 | 99.0 | 1.0 | 120,5 ng | 129,5 ng | Form III (%) ([1]; complex 5 × 10^−3 M): 0%
COc1ccc(CN=Cc2ccccc2[O-])cc1.COc1ccc(CN=Cc2ccccc2[O-])cc1.[Cl-].[Cl-].[Cu+2].[Cu+2] [Complex 4c, [Cu2 (Sal-4-MeOBn)2 Cl2]] | 124,5 ng | 125,5 ng | – | 250 ng | 49,8% | 50,2% | 0 | 0% | – | 0 | 4,7% | 95,3% | – | 5.2 | 91.5 | 8.5 | 97.4 | 2.6 | 11,75 ng | 238,25 ng | Form III (%) ([1]; complex 5 × 10^−3 M): 0%; cytotoxic activity (cell death) (S. cerevisiae cells; over the tested concentrations 1–5 mM): above 94%
